In US20220296584A1, “Membrane Active Molecules” (priority 2017, published 2022):
Like-named read-outs stand apart in the source and are kept apart here.

How the values were obtained:
Tadpoles = test: Tadpole movement suppression (anesthetic efficacy); assay type: in vivo
Experimental: Tadpoles were placed in a petri dish containing aquarium water. Four to eight tadpoles were placed in each petri dish. The aquarium water contained the specified test compound at the listed concentration. When the tadpoles stopped moving, a plastic rod was used to elicit motion once again by contact between the rod and tadpole. […] From this and the number of subjects, the percent of tadpoles in which movement was suppressed were calculated.
After 1 to 30 minutes, they were again contacted with a rod to ensure the anesthetic effect had worn off
In some examples, subanesthetic concentrations of ethanol were added into the aquarium water. Tadpoles in which movement was prevented with exposure to a test compound and ethanol but not with exposure to a test compound alone were classified as partial anesthetics.

mice = conditions: intravenously
[1] = Concentration (mM): 125 + 150 EtOH
[2] = Concentration (mM): 250 + 150 EtOH
[3] = Concentration (mM): 50 + 150 EtOH
[4] = Concentration (mM): 20 + 150 EtOH
[5] = Concentration (mM): 25 + 150 EtOH
[6] = Concentration (mM): 100 + 150 EtOH
[7] = Concentration (mM): 12.5 + 150 EtOH

CCC(O)C(=O)O (stereo not shown) [2-Hydroxybutyric acid, 2-hydroxybutyric acid]
Movement suppressed (%) (Tadpoles; Concentration (mM): 125): 0%
Movement suppressed (%) (Tadpoles; [1]): 86%

O=C(O)CCC(=O)C(=O)O [2-Oxoglutaric acid]
Movement suppressed (%) (Tadpoles; Concentration (mM): 200 + 150 EtOH): 86%
Movement suppressed (%) (Tadpoles; [2]): 100%

CC(C)(C)CC(=O)O [3,3-Dimethylbutyric acid, 3,3-Dimethylbutanoic acid]
Movement suppressed (%) (Tadpoles; Concentration (mM): 25): 100%

CC(C)(O)CC(=O)O [3-Hydroxy-3-methylbutyric acid, 3-Hydroxy-3-methylbutanoic acid]
Movement suppressed (%) (Tadpoles; Concentration (mM): 1.6): 0%
Movement suppressed (%) (Tadpoles; Concentration (mM): 6.25): 0%
Movement suppressed (%) (Tadpoles; Concentration (mM): 25): 0%
Movement suppressed (%) (Tadpoles; [3]): 100%
Movement suppressed (%) (Tadpoles; Concentration (mM): 100): 100%

CCC(C)C(=O)C(=O)O (stereo not shown) [3-Methyl-2-oxovaleric acid, 3-Methyl-2-oxopentanoic acid]
Movement suppressed (%) (Tadpoles; Concentration (mM): 250): 33%

Cc1cccc(C(=O)NCC(=O)O)c1 [3-Methylhippuric acid, (3-Methylbenzoyl)glycine]
Movement suppressed (%) (Tadpoles; Concentration (mM): 3.125): 0%
Movement suppressed (%) (Tadpoles; Concentration (mM): 3.125 + 150 EtOH): 100%

CCC(C)CC(=O)O (stereo not shown) [3-Methylvaleric acid, 3-Methylpentanoic acid]
Movement suppressed (%) (Tadpoles; Concentration (mM): 20): 25%
Movement suppressed (%) (Tadpoles; [4]): 66%

CC(=O)CCCC(=O)O [4-Acetylbutyric acid, 5-Oxohexanoic acid]
Movement suppressed (%) (Tadpoles; Concentration (mM): 25): 0%
Movement suppressed (%) (Tadpoles; [5]): 80%

Cc1ccc(C(=O)NCC(=O)O)cc1 [4-Methylhippuric acid, (4-Methylbenzoyl)glycine]
Movement suppressed (%) (Tadpoles; [5]): 33%
Movement suppressed (%) (Tadpoles; Concentration (mM): 50): 0%
Movement suppressed (%) (Tadpoles; [3]): 100%
Movement suppressed (%) (Tadpoles; Concentration (mM): 150 EtOH (no test compound concentration printed)): 0%

CC(C)CCC(=O)O [4-Methylvaleric acid]
Movement suppressed (%) (Tadpoles; Concentration (mM): 20): 0%
Movement suppressed (%) (Tadpoles; [4]): 100%

O=C(O)CCCCC(=O)O [Adipic acid, Hexanedioic acid]
Movement suppressed (%) (Tadpoles; Concentration (mM): 50): 0%
Movement suppressed (%) (Tadpoles; [3]): 83%

C[C@H](N)C(=O)O [Alanine]
Movement suppressed (%) (Tadpoles; Concentration (mM): 62.5 + 150 EtOH): 20%
Movement suppressed (%) (Tadpoles; [1]): 80%

O=C(NC(O)C(=O)O)c1ccccc1 (stereo not drawn) [Alpha-Hydroxyhippuric acid, 2-Benzamido-2-hydroxyacetic acid]
Movement suppressed (%) (Tadpoles; Concentration (mM): 5): 33%
Movement suppressed (%) (Tadpoles; Concentration (mM): 5 + 20 EtOH): 66%
Movement suppressed (%) (Tadpoles; Concentration (mM): 10): 100%

N=C(N)NCCC[C@H](N)C(=O)O [Arginine]
Movement suppressed (%) (Tadpoles; Concentration (mM): 46.5): 0%
Movement suppressed (%) (Tadpoles; Concentration (mM): 192 + 150 EtOH): 83%

C[N+](C)(C)CCO [Choline]
Movement suppressed (%) (Tadpoles; Concentration (mM): 46 + 150 EtOH): 0%
Movement suppressed (%) (Tadpoles; [6]): 40%
Movement suppressed (%) (Tadpoles; Concentration (mM): 120 + 150 EtOH): 66%

CC(C)(C(=O)O)C(=O)O [Dimethylmalonic acid]
Movement suppressed (%) (Tadpoles; Concentration (mM): 125): 60%
Movement suppressed (%) (Tadpoles; Concentration (mM): 250): 60%

CCO [Ethanol control, ethanol, reference compound]
Movement suppressed (%) (Tadpoles; Concentration (mM): 100): 0%
Movement suppressed (%) (Tadpoles; Concentration (mM): 150): 0%
Movement suppressed (%) (Tadpoles; Concentration (mM): 200): 0%
Movement suppressed (%) (Tadpoles; Concentration (mM): 250): 33%

N[C@@H](CCC(=O)O)C(=O)O [Glutamate, Glutamic acid]
Movement suppressed (%) (Tadpoles; [3]): 100%

NC(=O)CC[C@H](N)C(=O)O [Glutamine]
Movement suppressed (%) (Tadpoles; Concentration (mM): 25): 0%
Movement suppressed (%) (Tadpoles; Concentration (mM): 50): 100%
Movement suppressed (%) (Tadpoles; Concentration (mM): 100): 100%

O=C(O)CCCC(=O)O [Glutaric acid]
Movement suppressed (%) (Tadpoles; Concentration (mM): 7.8): 0%
Movement suppressed (%) (Tadpoles; Concentration (mM): 31): 0%
Movement suppressed (%) (Tadpoles; Concentration (mM): 125): 0%
Movement suppressed (%) (Tadpoles; [1]): 60%

O=C(O)Cc1c[nH]c2ccccc12 [Indole-3-acetic acid, 2-(1H-indol-3-yl)acetic acid]
Movement suppressed (%) (Tadpoles; Concentration (mM): 12.5): 0%
Movement suppressed (%) (Tadpoles; [7]): 100%

CC[C@H](C)[C@H](N)C(=O)O [Isoleucine]
Movement suppressed (%) (Tadpoles; Concentration (mM): 25): 0%
Movement suppressed (%) (Tadpoles; [6]): 60%

CC(C)C(C(=O)O)C(=O)O [Isopropyl malonic acid, 2-isopropylmalonic acid]
Movement suppressed (%) (Tadpoles; Concentration (mM): 1.6): 0%
Movement suppressed (%) (Tadpoles; Concentration (mM): 6.25): 0%
Movement suppressed (%) (Tadpoles; Concentration (mM): 25): 50%
Movement suppressed (%) (Tadpoles; [5]): 40%

O=C(O)c1cc(O)c2ccccc2n1 [Kynurenic acid, 4-hydroxyquinoline-2-carboxylic acid]
Movement suppressed (%) (Tadpoles; Concentration (mM): 12.5): 0%
Movement suppressed (%) (Tadpoles; [7]): 100%

NC(=O)C[C@H](N)C(=O)O [L-Asparagine, Asparagine]
Movement suppressed (%) (Tadpoles; Concentration (mM): 100): 0%
Movement suppressed (%) (Tadpoles; [6]): 66%

N[C@@H](CO)C(=O)O [L-Serine, Serine]
Movement suppressed (%) (Tadpoles; Concentration (mM): 114): 0%
Movement suppressed (%) (Tadpoles; Concentration (mM): 229 + 150 EtOH): 60%
Movement suppressed (%) (Tadpoles; Concentration (mM): 300 + 150 EtOH): 100%

CC(C)[C@H](N)C(=O)O [L-valine, Valine]
Movement suppressed (%) (Tadpoles; Concentration (mM): 7.8): 0%
Movement suppressed (%) (Tadpoles; Concentration (mM): 31): 0%
Movement suppressed (%) (Tadpoles; Concentration (mM): 125): 0%
Movement suppressed (%) (Tadpoles; Concentration (mM): 500): 40%
Movement suppressed (%) (Tadpoles; Concentration (mM): 500 + 150 EtOH): 100%

CC(=O)CCC(=O)O [Levulinic acid, 4-oxopentanoic acid]
Movement suppressed (%) (Tadpoles; [6]): 50%

NCCCC[C@H](N)C(=O)O [Lysine]
Movement suppressed (%) (Tadpoles; [2]): 50%

O=C(O)C(O)c1ccccc1 (stereo not shown) [Mandelic acid, 2-Hydroxy-2-phenylacetic acid]
Movement suppressed (%) (Tadpoles; Concentration (mM): 250): 0%
Movement suppressed (%) (Tadpoles; Concentration (mM): 300): 100%
Movement suppressed (%) (Tadpoles; Concentration (mM): 500): 100%

CC(CC(=O)O)C(=O)O (stereo not shown) [Methylsuccinic acid]
Movement suppressed (%) (Tadpoles; [2]): 43%

O=C(O)CC(=O)C(=O)O [Oxaloacetic acid, 2-Oxosuccinic acid]
Movement suppressed (%) (Tadpoles; [1]): 100%

O=C(O)C(=O)Cc1ccccc1 [Phenylpyruvic acid, 2-Oxo-3-phenylpropanoic acid]
Movement suppressed (%) (Tadpoles; Concentration (mM): 62.5): 100%
Movement suppressed (%) (Tadpoles; Concentration (mM): 125): 100%

O=C(O)[C@@H]1CCCN1 [Proline]
Movement suppressed (%) (Tadpoles; Concentration (mM): 103): 0%
Movement suppressed (%) (Tadpoles; Concentration (mM): 411 + 150 EtOH): 100%

O=C(O)c1ccc2ccccc2n1 [Quinaldic acid, Quinoline-2-carboxylic acid]
Movement suppressed (%) (Tadpoles; Concentration (mM): 25): 16%
Movement suppressed (%) (Tadpoles; [5]): 60%

C[C@@H](O)CC(=O)O [R-3-hydroxybutyric acid, (R)-3-Hydroxybutanoic acid]
Movement suppressed (%) (Tadpoles; Concentration (mM): 100): 0%
Movement suppressed (%) (Tadpoles; Concentration (mM): 200): 0%
Movement suppressed (%) (Tadpoles; Concentration (mM): 250): 0%
Movement suppressed (%) (Tadpoles; Concentration (mM): 300): 0%
Movement suppressed (%) (Tadpoles; Concentration (mM): 350): 0%
Movement suppressed (%) (Tadpoles; Concentration (mM): 400): 46%
Movement suppressed (%) (Tadpoles; Concentration (mM): 500): 100%

C[C@H](O)CC(=O)O [S-3-hydroxybutyric acid, (S)-3-Hydroxybutanoic acid]
Movement suppressed (%) (Tadpoles; Concentration (mM): 100): 0%
Movement suppressed (%) (Tadpoles; Concentration (mM): 200): 0%
Movement suppressed (%) (Tadpoles; Concentration (mM): 250): 14%
Movement suppressed (%) (Tadpoles; Concentration (mM): 300): 17%
Movement suppressed (%) (Tadpoles; Concentration (mM): 350): 50%
Movement suppressed (%) (Tadpoles; Concentration (mM): 400): 92%
Movement suppressed (%) (Tadpoles; Concentration (mM): 500): 100%

O=C(O)CCCCCCC(=O)O [Suberic acid, Octanedioic acid]
Movement suppressed (%) (Tadpoles; Concentration (mM): 10): 50%

N[C@@H](Cc1c[nH]c2ccccc12)C(=O)O [Tryptophan]
Movement suppressed (%) (Tadpoles; Concentration (mM): 12.5): 0%
Movement suppressed (%) (Tadpoles; [7]): 80%

CCOC(=O)C(CC)C(=O)OCC [diethyl ethyl malonate, Diethyl ethyl malonate]
Observed effect on the animals (mice; 62.5 mM solution in intralipid): lethargic and those loss coordination
Lethality (mice; 250 mM solution in intralipid): lethal
Lethality (mice; 1M solution in intralipid): lethal

Fumaric acid
Movement suppressed (%) (Tadpoles; Concentration (mM): 25): 40%

Guanidine
Movement suppressed (%) (Tadpoles; Concentration (mM): 62.5): 0%

Succinic acid
Movement suppressed (%) (Tadpoles; Concentration (mM): 62.5): 0%

Tartaric acid [L-Tartaric acid]
Movement suppressed (%) (Tadpoles; Concentration (mM): 50): 0%
